Converted amounts (≈) assume the structure as drawn. The source made the active and inactive calls. No cut-off for these calls is given here.

The subject of the test is Staphylococcus aureus. Put plainly: Antibacterial activity against Staphylococcus aureus assessed as growth inhibition after 24 hrs by broth microdilution assay. Format: functional.
Regarding `C[C@@H]1O[C@@H](O[C@@H]2[C@@H](O)[C@H](OCCc3ccc(O)c4c3[C@@]3(Nc5ccccc5C3=O)[C@]3(Nc5ccccc5C3=O)O4)O[C@H](CO)[C@H]2OC(=O)/C=C/c2ccc(O)c(O)c2)[C@H](O)[C@H](O)[C@H]1O`, the outcome was inactive. In the case of `COC(=O)/C=C/c1[nH]c2ccccc2c1O[C@@H]1O[C@H](CO)[C@@H](O)[C@H](O)[C@H]1O`, the result was inactive. Take `COC(=O)c1ccccc1NC(=O)c1[nH]c2ccccc2c1O[C@@H]1O[C@H](CO)[C@@H](O)[C@H](O)[C@H]1O`: the result was inactive. The same measure, in the same setting: to `COc1ccc(CCO[C@@H]2O[C@H](CO)[C@@H](OC(=O)/C=C/c3ccc(O)c(O)c3)[C@H](O[C@@H]3O[C@@H](C)[C@H](O)[C@@H](O)[C@H]3O)[C@H]2O)cc1O` belongs “inactive”; to `COc1ccc(CCO[C@@H]2O[C@H](COC(=O)/C=C/c3ccc(O)c(OC)c3)[C@@H](O)[C@H](O[C@@H]3O[C@@H](C)[C@H](O)[C@@H](O)[C@H]3O)[C@H]2O)cc1O`, “inactive”.

`C[C@@H]1O[C@@H](O[C@@H]2[C@@H](O)[C@H](OCCc3ccc(O)c4c3[C@]3(Nc5ccccc5C3=O)[C@@]3(Nc5ccccc5C3=O)O4)O[C@H](CO)[C@H]2OC(=O)/C=C/c2ccc(O)c(O)c2)[C@H](O)[C@H](O)[C@H]1O`: the result was inactive. On the same count and under the same terms, to `COc1ccc(CCO[C@@H]2O[C@H](CO)[C@@H](OC(=O)/C=C/c3ccc(O)c(OC)c3)[C@H](O[C@@H]3O[C@@H](C)[C@H](O)[C@@H](O)[C@H]3O)[C@H]2O)cc1O` belongs “inactive”; to `C[C@@H]1O[C@@H](O[C@@H]2[C@@H](O)[C@H](OCCc3ccc(O)c(O)c3)O[C@H](CO)[C@@H]2OC(=O)/C=C/c2ccc(O)c(O)c2)[C@H](O)[C@H](O)[C@H]1O`, “inactive”.

Take `O=C1/C(=C2/C(=O)N([C@@H]3O[C@H](CO)[C@@H](O)[C@H](O)[C@H]3O)c3ccccc32)Nc2ccccc21`: the MIC turned out to be 62.5 µM (≈ 26.5 µg/mL). Regarding `C[C@@H]1O[C@@H](O[C@@H]2[C@@H](O)[C@H](OCCc3ccc(O)c(O)c3)O[C@H](CO)[C@H]2OC(=O)/C=C/c2ccc(O)c(O)c2)[C@H](O)[C@H](O)[C@H]1O`, the result was inactive.

The record behind these values is ChEMBL document CHEMBL3351866, “Indole alkaloid glycosides from the aerial parts of Strobilanthes cusia” (2014).
